Results: PubChem BioAssay AID248 (DTP/NCI, 2004)
“And” between values parts separate entries of the source, which are not always exact repeats. Equal entries are not always repeated. Toxic doses and inconclusive results are not listed. No stated cut-off is given here; in the data, active means T/C of 150% or more; inactive means T/C below 125%.

Test system: L1210 leukemia ip in BDF1 mice, survival T/C
Experiment: NCI In Vivo Anticancer Drug Screen. Data for tumor model L1210 Leukemia (intraperitoneal) in B6D2F1 (BDF1) mice
Details: endpoint: mean survival time, higher = longer survival
In short: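 Mice bearing the transplanted tumor received compound or vehicle. Survival of the treated group was divided by that of the vehicle-treated control group to give the ratio.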

[1] = dose: 100.0 mg/kg/injection, schedule: Q01DX009 (ip), vehicle: saline sonified
[2] = dose: 100.0 mg/kg/injection, schedule: Q04DX003 (ip), vehicle: Klucel (hydroxypropylcellulose) (HPC)
[3] = dose: 200.0 mg/kg/injection, schedule: Q01DX009 (ip), vehicle: saline sonified
[4] = dose: 200.0 mg/kg/injection, schedule: Q04DX003 (ip), vehicle: Klucel (hydroxypropylcellulose) (HPC)
[5] = dose: 400.0 mg/kg/injection, schedule: Q01DX009 (ip), vehicle: saline sonified
[6] = dose: 400.0 mg/kg/injection, schedule: Q04DX003 (ip), vehicle: Klucel (hydroxypropylcellulose) (HPC)
[7] = dose: 100.0 mg/kg/injection, schedule: Q04DX003 (ip), vehicle: saline with Tween-80
[8] = dose: 200.0 mg/kg/injection, schedule: Q04DX003 (ip), vehicle: saline with Tween-80
[9] = dose: 400.0 mg/kg/injection, schedule: Q04DX003 (ip), vehicle: saline with Tween-80
[10] = dose: 100.0 mg/kg/injection, schedule: Q01DX001 (ip), vehicle: carboxymethylcellulose (CMC)
[11] = dose: 200.0 mg/kg/injection, schedule: Q01DX001 (ip), vehicle: carboxymethylcellulose (CMC)
[12] = dose: 400.0 mg/kg/injection, schedule: Q01DX001 (ip), vehicle: carboxymethylcellulose (CMC)
[13] = dose: 100.0 mg/kg/injection, schedule: Q04DX003 (ip), vehicle: saline
[14] = dose: 200.0 mg/kg/injection, schedule: Q04DX003 (ip), vehicle: saline
[15] = dose: 400.0 mg/kg/injection, schedule: Q04DX003 (ip), vehicle: saline
[16] = dose: 50.0 mg/kg/injection, schedule: Q01DX009 (ip), vehicle: Klucel (hydroxypropylcellulose) (HPC)
[17] = dose: 100.0 mg/kg/injection, schedule: Q01DX009 (ip), vehicle: Klucel (hydroxypropylcellulose) (HPC)
[18] = dose: 200.0 mg/kg/injection, schedule: Q01DX009 (ip), vehicle: Klucel (hydroxypropylcellulose) (HPC)
[19] = dose: 100.0 mg/kg/injection, schedule: Q04DX002 (ip), vehicle: Klucel (hydroxypropylcellulose) (HPC)
[20] = dose: 100.0 mg/kg/injection, schedule: Q01DX009 (ip), vehicle: saline with Tween-80
[21] = dose: 200.0 mg/kg/injection, schedule: Q01DX009 (ip), vehicle: saline with Tween-80
[22] = dose: 400.0 mg/kg/injection, schedule: Q01DX009 (ip), vehicle: saline with Tween-80
[23] = dose: 100.0 mg/kg/injection, schedule: Q01DX001 (ip), vehicle: saline
[24] = dose: 200.0 mg/kg/injection, schedule: Q01DX001 (ip), vehicle: saline
[25] = dose: 400.0 mg/kg/injection, schedule: Q01DX001 (ip), vehicle: saline

Measured: T/C

CC(=O)Oc1c(Cl)c(Cl)c(Cl)c(Cl)c1Cl
inactive: [1] 101 % of control | [2] 100 % of control | [3] 107 % of control | [4] 100 % of control | [5] 106 % of control | [6] 93 % of control

CC1CN(c2ccncc2N)CCN1c1ccc(Cl)cc1 (centres undefined)
inactive: [7] 110 % of control | [8] 105 % of control | [9] 105 % of control

CCCCC(=O)N/N=C\c1cccc2ccccc12
inactive: [10] 86 % of control | [11] 88 % of control | [12] 96 % of control

CCCCS(=O)(=O)N1CCCC1
inactive: dose: 100.0 mg/kg/injection, schedule: Q04DX002 (ip), vehicle: saline with Tween-80 101 % of control | dose: 200.0 mg/kg/injection, schedule: Q04DX002 (ip), vehicle: saline with Tween-80 101 % of control | dose: 400.0 mg/kg/injection, schedule: Q04DX002 (ip), vehicle: saline with Tween-80 101 % of control

COc1cccc(/C=N/N=C(N)N)c1
inactive: dose: 15.0 mg/kg/injection, schedule: Q01DX Z (ip), vehicle: saline 94 % of control | dose: 30.0 mg/kg/injection, schedule: Q01DX Z (ip), vehicle: saline 97 % of control | dose: 30.0 mg/kg/injection, schedule: Q01DX Z (oral), vehicle: saline 104 % of control | dose: 60.0 mg/kg/injection, schedule: Q01DX Z (ip), vehicle: saline 92 % of control | dose: 60.0 mg/kg/injection, schedule: Q01DX Z (oral), vehicle: saline 104 % of control | dose: 120.0 mg/kg/injection, schedule: Q01DX Z (oral), vehicle: saline 101 % of control

CSc1ncc(C(N)=O)c(N=C(C)C)n1
inactive: dose: 12.5 mg/kg/injection, schedule: Q04DX003 (ip), vehicle: Klucel (hydroxypropylcellulose) (HPC) 96 % of control | dose: 25.0 mg/kg/injection, schedule: Q04DX003 (ip), vehicle: Klucel (hydroxypropylcellulose) (HPC) 96 % of control | dose: 50.0 mg/kg/injection, schedule: Q04DX003 (ip), vehicle: Klucel (hydroxypropylcellulose) (HPC) 94 % of control | [2] 97 % of control

CCOC(=O)C1CCCCC1
inactive: [13] 102 % of control | [14] 98 % of control | [15] 91 % of control

On1nc(-c2ccccc2)c(-c2c(-c3ccccc3)nn(O)c2-c2ccccc2)c1-c1ccccc1
inactive: [16] 90 % of control | [17] 90 % of control | [18] 97 % of control

CN(C)C=Nc1ccc2c3c(cccc13)CC2
inactive: dose: 6.25 mg/kg/injection, schedule: Q04DX003 (ip), vehicle: saline with Tween-80 103 % of control | dose: 12.5 mg/kg/injection, schedule: Q04DX003 (ip), vehicle: saline with Tween-80 88 % of control | dose: 25.0 mg/kg/injection, schedule: Q04DX003 (ip), vehicle: saline with Tween-80 98 % of control

CN(C(=O)C1C(C(=O)O)C2(Cl)C(Cl)=C(Cl)C1(Cl)C2(Cl)Cl)C1CCCCC1 (centres undefined)
inactive: [19] 110 % of control | dose: 200.0 mg/kg/injection, schedule: Q04DX002 (ip), vehicle: Klucel (hydroxypropylcellulose) (HPC) 98 % of control

O=C(CCN1CC=C(c2ccccc2)CC1)NCc1ccccc1
inactive: [20] 95 % of control | [7] 98 % of control | [21] 93 % of control | [8] 100 % of control | [22] 95 % of control | [9] 100 % of control

C/C(=N/NC(N)=O)c1cccc([N+](=O)[O-])c1
inactive: [23] 89 % of control | [24] 89 % of control | [25] 93 % of control

CCOC(=O)C(CN(CC)CC)c1ccccc1 (centres undefined)
inactive: dose: 88.8 mg/kg/injection, schedule: Q01DX001 (ip), vehicle: carboxymethylcellulose (CMC) 97 % of control and 105 % of control | [10] 118 % of control | dose: 133.0 mg/kg/injection, schedule: Q01DX001 (ip), vehicle: carboxymethylcellulose (CMC) 97 % of control and 98 % of control | [11] 105 % of control and 109 % of control | dose: 300.0 mg/kg/injection, schedule: Q01DX001 (ip), vehicle: carboxymethylcellulose (CMC) 98 % of control and 106 % of control | [12] 115 % of control

O=C(CCl)OC1CCCCC1
inactive: [20] 105 % of control | [21] 97 % of control

COc1cc2ccc(CN3CCCC3C(=O)OCc3ccccc3)cc2cc1OC (centres undefined)
inactive: [1] 100 % of control | dose: 100.0 mg/kg/injection, schedule: Q04DX003 (ip), vehicle: saline sonified 95 % of control | [3] 96 % of control | dose: 200.0 mg/kg/injection, schedule: Q04DX003 (ip), vehicle: saline sonified 96 % of control | [5] 91 % of control | dose: 400.0 mg/kg/injection, schedule: Q04DX003 (ip), vehicle: saline sonified 96 % of control

O=C1c2cc(O)c(O)cc2O[C@H](c2ccc(O)c(O)c2)[C@H]1O
inactive: [13] 106 % of control | [14] 100 % of control | [15] 104 % of control

CCCCCC#CCO
inactive: [7] 108 % of control | [8] 101 % of control

COc1ccc(C(c2ccc(OC)cc2)c2cccc([N+](=O)[O-])c2)cc1
inactive: [7] 97 % of control | [8] 92 % of control

CSc1ccc(OC(=O)NC2CCCCC2)cc1C
inactive: [17] 92 % of control | [2] 93 % of control | [18] 97 % of control | [4] 111 % of control | dose: 400.0 mg/kg/injection, schedule: Q01DX009 (ip), vehicle: Klucel (hydroxypropylcellulose) (HPC) 93 % of control | [6] 95 % of control

CCOP(=O)(OCC)C1=C(P(=O)(OCC)OCC)C(F)(F)C(F)(F)C1(F)F
inactive: dose: 9.5 mg/kg/injection, schedule: Q01DX001 (ip), vehicle: other 100 % of control | dose: 19.0 mg/kg/injection, schedule: Q01DX001 (ip), vehicle: other 100 % of control | dose: 38.0 mg/kg/injection, schedule: Q01DX001 (ip), vehicle: other 97 % of control

Cc1nnc(/N=C/c2ccccc2)n1/N=C/c1ccccc1
inactive: dose: 25.0 mg/kg/injection, schedule: Q04DX002 (ip), vehicle: Klucel (hydroxypropylcellulose) (HPC) 90 % of control | dose: 50.0 mg/kg/injection, schedule: Q04DX002 (ip), vehicle: Klucel (hydroxypropylcellulose) (HPC) 90 % of control | [19] 96 % of control

CC(C)=CCC/C(C)=C/C(=O)O
inactive: [23] 100 % of control | [24] 93 % of control | [25] 93 % of control

CCOC(=O)c1cnc(OCC)nc1Nc1ccccc1Br
inactive: dose: 100.0 mg/kg/injection, schedule: Q01DX001 (ip), vehicle: Klucel (hydroxypropylcellulose) (HPC) 100 % of control | dose: 200.0 mg/kg/injection, schedule: Q01DX001 (ip), vehicle: Klucel (hydroxypropylcellulose) (HPC) 95 % of control | dose: 400.0 mg/kg/injection, schedule: Q01DX001 (ip), vehicle: Klucel (hydroxypropylcellulose) (HPC) 97 % of control

Cc1cc(N(CCOS(C)(=O)=O)CCOS(C)(=O)=O)ccc1C=Nc1ccc(-c2csc(-c3ccc(Cl)cc3)n2)cc1
inactive: dose: 25.0 mg/kg/injection, schedule: Q01DX009 (ip), vehicle: Klucel (hydroxypropylcellulose) (HPC) 112 % of control | [16] 86 % of control

OC/C(=N/Nc1ccc2ccccc2n1)c1ccccc1
inactive: [20] 94 % of control | [7] 93 % of control | [21] 93 % of control | [8] 100 % of control | [22] 93 % of control | [9] 89 % of control

O=[N+]([O-])c1cc(Br)c(Br)cc1N1CCCC1
inactive: [13] 98 % of control | [14] 88 % of control | [15] 86 % of control

O=C(c1ccccc1)c1ccccc1O
inactive: dose: 50.0 mg/kg/injection, schedule: Q01DX001 (ip), vehicle: other 90 % of control | dose: 100.0 mg/kg/injection, schedule: Q01DX001 (ip), vehicle: other 93 % of control | dose: 200.0 mg/kg/injection, schedule: Q01DX001 (ip), vehicle: other 101 % of control | dose: 400.0 mg/kg/injection, schedule: Q01DX001 (ip), vehicle: other 95 % of control
